The values below come from patent US4906612A (priority 1988, dated 1990).

≈ marks a conversion by molar mass, not a printed value. Read-outs that look alike come from different tables or passages of the source. A value given as a limit tells only on which side of the number the result lay.

A short description of series [1]: LD50 when intravenously injected in male mice. It is filed as in vivo. From the text:
The growth-promoting agent of the present invention not only promotes the growth of animals, but also improves feed utilization efficiency. The agent is also effective for the treatment of bacterial diseases.

In another series the test system is Cl. perfringens. It is filed as cell-based, Clostridium perfringens. Conditions: GAM agar, 24 hours at 37° C.
The nature of series [2]: Growth promoting effect on chicks, 20 ppm in feed for 10 days (Table 2). Conditions: for Body weight gain, mean value ± standard error: chicks 8 to 18 days of age, 20 ppm in feed × 10 days; for Feed efficiency: chicks, no antibiotic group 1.70; for Body weight gain index: no antibiotic group = 100.0. It is filed as in vivo. The method, then:
Growth promoting effect of PA-42867-A on chicks (8 days of age, Abaeker species) was determined using a known antibiotic, Thiopeptin, as a control. PA-42867-A and Thiopeptin were added to an antibiotic-free feed mash (crude protein content (CP): 18%) at a concentration of 20 ppm, and the chicks were raised for 10 days with the resulting feed according to the battery method. Specifically describing the method of experiment, newly hatched chicks were fed until 8 days of age with a feed ration of 23% CP by the flat feeding method, at which time the chicks were divided into three groups each containing 25-26 chicks (males and females, 12-13 chicks each) so that the average weights of the chicks in all groups were nearly the same. PA-42867-A group received 20 ppm of the antibiotic a day for 10 days, Thiopeptin group received 20 ppm for 10 days, and the control group received antibiotic-free feed of 18% CP for 10 days. The above feeding was conducted after dividing the chicks in each of these groups into sub-groups of 6-7 chicks and putting each sub-group in a cage (435×600×410 mm). The feeding was conducted for 10 days (until 18 days of age) at an environmental temperature of 26°±2°C. The effectiveness of the drug was evaluated based on the body weight gain and the feed efficiency observed during the 10 days period of the experiment.

Series [3] is described as follows: Growth promoting effect on chicks, 20 ppm in feed for 13 days (Table 3). It is filed as in vivo. Conditions: for Feed efficiency, 10 days / Feed efficiency, 13 days / Body weight gain ± standard error, 13 days / Body weight gain ± standard error, 10 days: 20 ppm in feed; for Feed efficiency, 10 days / Body weight gain comparative index, 10 days: 10th day; for Feed efficiency, 10 days: no antibiotic group 1.69; for Feed efficiency, 13 days / Body weight gain comparative index, 13 days: 13th day; for Feed efficiency, 13 days: no antibiotic group 1.76; for Body weight gain ± standard error, 13 days: chicks 8-21 days of age, measured on the 13th day; for Body weight gain ± standard error, 10 days: chicks from 8 days of age, measured on the 10th day; for Body weight gain comparative index, 10 days / Body weight gain comparative index, 13 days: weight gain of the control group regarded as 100. The procedure:
In the same manner, another growth promoting tests were conducted on des-(4-epi-vancosaminyl)PA-42867-A and des-(4-epi-vancosaminyl-0-glucosyl)PA-42867-A by giving 20 ppm of the test drug to chicks of 8-21 days of age for 13 days, using Thiopeptin as a control.
The newly hatched chicks were fed until eight days of age with a feed mash (crude protein content (CP):23%) without addition of any antibiotic by means of the flat feeding. Then, the chicks were divided into four groups each containing 24 chicks (males and females, 12 each). Each group was placed in four cages after dividing into four unisexual sub-groups, each consisting of 6-7 chicks, and raised for 13 days with an animal feed of CP 18% with or without antibiotics. Thus, each of four groups received 20 ppm of des-(4-epi-vancosaminyl)PA-42867-A, 20 ppm of des(4-epi-vancosaminyl-0-glucosyl)PA-42867-A, 20 ppm of Thiopeptin, and no antibiotic, respectively.
Body weight gain and feed efficiency were measured on the 10th and the 13th day.

What is called LD50 is the dose expected to kill half of the subjects tested. As a reminder, the MIC is the lowest concentration that inhibits growth of the organism.

As for `CNC(CC(C)C)C(=O)NC1C(=O)NC(CC(N)=O)C(=O)NC2C(=O)NC3C(=O)NC(C(=O)NC(C(=O)O)c4cc(O)cc(O)c4-c4cc3ccc4O)C(OC3CC(C)(N)C(O)C(C)O3)c3ccc(c(Cl)c3)Oc3cc2cc(c3OC2OC(CO)C(O)C(O)C2OC2CC(C)(N)C(O)C(C)O2)Oc2ccc(cc2)C1O` (stereo not drawn) [Compound 1, PA-42867-A], the LD50 in series [1] is 1955 mg/kg. The MIC in the series with Cl. perfringens (strain 3C-01, origin chicken) came to 0.39 µg/mL (≈ 0.25 µM); against Cl. perfringens (strain 6B-10, origin cow) it was 0.2 µg/mL (≈ 0.128 µM); in the series with Cl. perfringens (strain 9C-02, origin chicken), 0.2 µg/mL (≈ 0.128 µM); against Cl. perfringens (strain 02441, origin chicken) it was 0.39 µg/mL (≈ 0.25 µM); with Cl. perfringens (strain CW-1970, origin cow), 0.39 µg/mL (≈ 0.25 µM); against Cl. perfringens (strain FC 2208/75, origin cow) it was 0.39 µg/mL (≈ 0.25 µM). Also, the MIC against Cl. perfringens (strain NCTC-8239, origin cow) came to 0.39 µg/mL (≈ 0.25 µM); against Cl. perfringens (strain NCTC-8798, origin cow), 0.39 µg/mL (≈ 0.25 µM); in the series with Cl. perfringens (strain NCTC-10239, origin cow), 0.39 µg/mL (≈ 0.25 µM); with Cl. perfringens (strain S-79, origin cow) it was 0.39 µg/mL (≈ 0.25 µM); in the series with Cl. perfringens (strain SP07, origin chicken) it was 0.39 µg/mL (≈ 0.25 µM). For the same molecule, the “Feed efficiency compared with the group raised with antibiotic-free feed (in words)” value in series [2] (20 ppm × 10 days) is on record as “better results in feed efficiency”. Further, the “Body weight gain compared with the no-antibiotic control group and the Thiopeptin group (in words)” value in series [2] (20 ppm × 10 days, p<0.01) is “significantly high body weight gain”. Further, the “Body weight gain, mean value ± standard error” value in series [2] is reported as 332.0 ± 6.71 g. The Feed efficiency in series [2] (20 ppm × 10 days) turned out to be 1.53. Also, the “Body weight gain index” value in series [2] (20 ppm × 10 days) is 110.0. Further, the “Feed efficiency, 10 days” value in series [3] is given as 1.54. For the same molecule, the “Feed efficiency, 13 days” value in series [3] was 1.66. Further, the “Body weight gain ± standard error, 13 days” value in series [3] worked out at 442.6 ± 7.8 g. Further, in series [3], the “Body weight gain ± standard error, 10 days” value turned out to be 328.9 ± 6.3 g. For the same molecule, the “Body weight gain comparative index, 10 days” value in series [3] was 105.4. In series [3], the “Body weight gain comparative index, 13 days” value was 103.9.
On to `CNC(CC(C)C)C(=O)NC1C(=O)NC(CC(N)=O)C(=O)NC2C(=O)NC3C(=O)NC(C(=O)NC(C(=O)O)c4cc(O)cc(O)c4-c4cc3ccc4O)C(OC3CC(C)(N)C(O)C(C)O3)c3ccc(c(Cl)c3)Oc3cc2cc(c3OC2OC(CO)C(O)C(O)C2O)Oc2ccc(cc2)C1O` (stereo not drawn) [Compound 2, des-(4-epi-vancosaminyl) PA-42867-A], for which, in series [1], the LD50 is above 3000 mg/kg. Further, the MIC was 1.56 µg/mL (≈ 1.1 µM) in the series on Cl. perfringens (strain 3C-01, origin chicken); 1.56 µg/mL (≈ 1.1 µM) with Cl. perfringens (strain 6B-10, origin cow); 1.56 µg/mL (≈ 1.1 µM) against Cl. perfringens (strain 9C-02, origin chicken); 1.56 µg/mL (≈ 1.1 µM) in the series with Cl. perfringens (strain 02441, origin chicken); 1.56 µg/mL (≈ 1.1 µM) in the series with Cl. perfringens (strain CW-1970, origin cow); 1.56 µg/mL (≈ 1.1 µM) in the series on Cl. perfringens (strain FC 2208/75, origin cow). The MIC turned out to be 1.56 µg/mL (≈ 1.1 µM) in the series on Cl. perfringens (strain NCTC-8239, origin cow); 1.56 µg/mL (≈ 1.1 µM) against Cl. perfringens (strain NCTC-8798, origin cow); 1.56 µg/mL (≈ 1.1 µM) against Cl. perfringens (strain NCTC-10239, origin cow); 0.78 µg/mL (≈ 0.551 µM) against Cl. perfringens (strain S-79, origin cow); 1.56 µg/mL (≈ 1.1 µM) in the series with Cl. perfringens (strain SP07, origin chicken). For the same molecule, in series [3], the “Feed efficiency, 10 days” value amounted to 1.62. Further, the “Feed efficiency, 13 days” value in series [3] is on record as 1.66. For the same molecule, in series [3], the “Body weight gain ± standard error, 13 days” value stood at 447.4 ± 11.5 g. In addition, the “Body weight gain ± standard error, 10 days” value in series [3] came out at 324.6 ± 8.3 g. Moreover, the “Body weight gain comparative index, 10 days” value in series [3] was 104.0. In series [3], the “Body weight gain comparative index, 13 days” value was found to be 105.0.
In series [1], `CNC(CC(C)C)C(=O)NC1C(=O)NC(CC(N)=O)C(=O)NC2C(=O)NC3C(=O)NC(C(=O)NC(C(=O)O)c4cc(O)cc(O)c4-c4cc3ccc4O)C(OC3CC(C)(N)C(O)C(C)O3)c3ccc(c(Cl)c3)Oc3cc2cc(c3O)Oc2ccc(cc2)C1O` (stereo not drawn) [Compound 3, des-(4-epi-vancosaminyl-0-glucosyl)PA-42867-A] came in with an LD50 of 205 mg/kg. Also, the MIC stood at 0.78 µg/mL (≈ 0.623 µM) against Cl. perfringens (strain 3C-01, origin chicken); 0.78 µg/mL (≈ 0.623 µM) against Cl. perfringens (strain 6B-10, origin cow); 0.78 µg/mL (≈ 0.623 µM) against Cl. perfringens (strain 9C-02, origin chicken); 0.78 µg/mL (≈ 0.623 µM) in the series on Cl. perfringens (strain 02441, origin chicken); 0.78 µg/mL (≈ 0.623 µM) against Cl. perfringens (strain CW-1970, origin cow); 0.78 µg/mL (≈ 0.623 µM) against Cl. perfringens (strain FC 2208/75, origin cow). In addition, the MIC worked out at 0.78 µg/mL (≈ 0.623 µM) against Cl. perfringens (strain NCTC-8239, origin cow); 0.78 µg/mL (≈ 0.623 µM) against Cl. perfringens (strain NCTC-8798, origin cow); 0.78 µg/mL (≈ 0.623 µM) against Cl. perfringens (strain NCTC-10239, origin cow); 0.39 µg/mL (≈ 0.311 µM) against Cl. perfringens (strain S-79, origin cow); 0.78 µg/mL (≈ 0.623 µM) against Cl. perfringens (strain SP07, origin chicken).
Regarding Thiopeptin [reference compound], in series [2] (20 ppm × 10 days), the “Feed efficiency compared with the group raised with antibiotic-free feed (in words)” value is on record as “better results in feed efficiency”, the Feed efficiency is 1.58 and the “Body weight gain index” value was determined as 103.9. For the same molecule, in series [2], the “Body weight gain, mean value ± standard error” value worked out at 313.7 ± 8.80 g. Moreover, in series [3], the “Feed efficiency, 10 days” value is 1.61; the “Feed efficiency, 13 days” value stood at 1.70; the “Body weight gain ± standard error, 13 days” value was found to be 445.5 ± 11.1 g; the “Body weight gain ± standard error, 10 days” value is reported as 319.5 ± 7.5 g. In addition, in series [3], the “Body weight gain comparative index, 10 days” value stood at 102.4 and the “Body weight gain comparative index, 13 days” value was 104.6.
